Reference: patent publication US20250099428A1, “USE OF BENZISOSELENAZOLE COMPOUND IN PREPERATION OF DRUG FOR TREATMENT OF SPINAGLIOMA” (Beijing Neurosurgical Institute, priority 2022, published 2025)
Entries after “also recorded” stand apart in the source; their conditions may differ.

Experiments:
[1] = tested on: SP0001 human-derived spinaglioma tumor; experiment: SP0001 tumor-bearing NPG mouse model, tumor growth inhibition; assay type: in vivo, NPG immunodeficient mice; conditions: for tumor volume inhibition rate: end of experiment; for tumor size at end of experiment: intragastric once a day, 24 days
Procedure: (§1) First, a tumor-bearing mouse model was built. Female NPG immunodeficient mice (6-8 weeks, starting weight 16-21 g, purchased from Beijing Vitalstar Biotechnology Co., Ltd.) were used for experimental research. The animals were raised and operated under sterile conditions, and all animal experiments were conducted in accordance with the international guidelines for animal experimentation. SP0001 human-derived spinaglioma tumor blocks (2-3 mm^3) were prepared and inoculated subcutaneously to the right ventrodorsal side of each NPG mouse. After inoculation, the status of the mice was observed, and the size of the tumor was measured. The animals with a tumor volume of 40 mm^3 were selected for experiment, and the animals that had too large tumor and no tumor were not selected. A total of 40 suitable tumor-bearing animals were selected for the experiment and divided into 5 experimental groups, with 8 mice in each group. The first day of administration was recorded as D1, the second day of administration was recorded as D2, and so on. All the animals were administered intragastrically once a day for 24 consecutive days. […] In the experiment, the physiological saline group was used as a negative control, and the temozolomide (TMZ) treatment group was used as a positive control.

[2] = Body weight and toxicity in tumor-bearing NPG mice; assay type: in vivo, NPG immunodeficient mice; conditions: for toxic and side effects on NPG mice: intragastric once a day, 24 days, BS: BSM and BSH groups, TMZ 30 mg/Kg
Procedure: as §1
During the experiment, no clinical abnormal symptoms or animal deaths due to drug toxicity were observed.
The histogram of the weight change rate of NPG mice after administration was shown in FIG. 9 (BSL, BSM, and BSH represent a low dose group 90 mg/Kg, a medium dose group 180 mg/Kg, and a high dose group 360 mg/Kg of the drug BS respectively).

SCA-S01 cells = experiment: CCK8 cell proliferation inhibition, spinaglioma cells SCA-S01; assay type: cell-based, human; conditions: cytarabine 24, 48, 96 hours, BS 24, 48 hours
Procedure: Spinaglioma cells SP0001 in a logarithmic growth phase were digested with trypsin and centrifuged to obtain a cell precipitate, and cells were counted after being re-suspended in a complete medium. Based on the count results, the cells SP0001 were inoculated into a 96-well cell culture plate with 5000 cells per well and cultured in a 37° C. incubator in a 5% CO2 environment. After 24 hours, the cells were treated with drugs. Atemozolomide (TMZ) compound and a benzisoselenazole compound (BS) of the present invention were respectively dissolved in DMSO to prepare a stock solution, which was then dissolved with the complete medium to different drug concentrations. The gradient concentrations of TMZ were 0, 100, 150, 200, 250, 300, 350, and 400 μM. The gradient concentrations of BS were 0, 1, 2, 3, 4, 5, 6, 7, and 8 μM. […]
The well plate was put back into the incubator, and cell proliferation was tested after 24 and 48 hours, respectively. […] The well plate was taken out of the incubator, the cell medium was removed from the wells to be tested, 110 μL of CCK8 working solution was added to each well, the incubation was continued for 2 hours, then the absorbance at 450 nm was measured on an enzyme-linked immunosorbent assay (ELISA) reader, an inhibition rate corresponding to each concentration was calculated, and IC50 values at corresponding time were calculated using GraphPad 7.0 software. […]

Spinaglioma cells SP0001 = experiment: CCK8 cell proliferation inhibition, spinaglioma cells SP0001; assay type: cell-based, human; conditions: for growth inhibition / killing effect on SP0001 cells: CCK8, cytarabine 24, 48, 96 hours, BS 24, 48 hours
Procedure: Spinaglioma cells SP0001 in a logarithmic growth phase were digested with trypsin and centrifuged to obtain a cell precipitate, and cells were counted after being re-suspended in a complete medium. Based on the count results, the cells SP0001 were inoculated into a 96-well cell culture plate with 5000 cells per well and cultured in a 37° C. incubator in a 5% CO2 environment. After 24 hours, the cells were treated with drugs. Atemozolomide (TMZ) compound and a benzisoselenazole compound (BS) of the present invention were respectively dissolved in DMSO to prepare a stock solution, which was then dissolved with the complete medium to different drug concentrations. The gradient concentrations of TMZ were 0, 100, 150, 200, 250, 300, 350, and 400 μM. The gradient concentrations of BS were 0, 1, 2, 3, 4, 5, 6, 7, and 8 μM. The medium was removed from the wells, and the corresponding drug solution of each concentration was added with 100 μL per well.
[…] When testing, a CCK8 working solution was prepared in advance, namely, an appropriate volume of working solution was prepared based on 100 μL serum-free medium and 10 μL CCK8 per well, and the working solution was placed in dark. The well plate was taken out of the incubator, the cell medium was removed from the wells to be tested, 110 μL of CCK8 working solution was added to each well, the incubation was continued for 2 hours, then the absorbance at 450 nm was measured on an enzyme-linked immunosorbent assay (ELISA) reader, an inhibition rate corresponding to each concentration was calculated, and IC50 values at corresponding time were calculated using GraphPad 7.0 software.
This example measured the killing effects of a cytarabine compound and the BS compound of the present invention on two types of spinaglioma cell lines SCA-S01 and SP0001, using the same method as Example 1.

[3] = tested on: primary spinaglioma cell line SP0001; experiment: Live and dead cell fluorescence staining of SP0001 cells; assay type: cell-based, human; conditions: 6 μM, treated 48 hours
Procedure: Fluorescence staining was performed using live and dead cell staining technology on the primary spinaglioma cell line SP0001 treated with the benzisoselenazole compound for 48 hours.

[4] = SP0001 cells, CCK8, 24 and 48 hours

Compound	tumor volume inhibition rate ([1]; TMZ group 30 mg/Kg) [%]	tumor size at end of experiment ([1]; TMZ group 30 mg/Kg) [mm^3]	weight loss compared to the Control group (decrease) ([2]; TMZ group 30 mg/Kg)	toxic and side effects on NPG mice [2]	killing effect on SCA-S01 cells (SCA-S01 cells)	growth inhibition / killing effect on SP0001 cells (Spinaglioma cells SP0001)	tumor volume inhibition rate ([1]; BS high dose 360 mg/Kg) [%]	tumor volume inhibition rate ([1]; BS low dose 90 mg/Kg) [%]	tumor volume inhibition rate ([1]; BS medium dose 180 mg/Kg) [%]	tumor size at end of experiment ([1]; BSH high dose 360 mg/Kg) [mm^3]	tumor size at end of experiment ([1]; BSL low dose 90 mg/Kg) [mm^3]	tumor size at end of experiment ([1]; BSM medium dose 180 mg/Kg) [mm^3]	killing effect [3] [%]	weight change during administration ([2]; BSM and BSH groups (180 and 360 mg/Kg))	inhibitory effect on proliferation of patient-derived spinaglioma cell line (Spinaglioma cells SP0001; [4])	sensitivity of patient-derived spinaglioma to the compound (Spinaglioma cells SP0001; [4])
Cn1nnc2c(C(N)=O)ncn2c1=O [TMZ, temozolomide, reference compound]	82.59	26.61±10.30	over 20%	significant toxic and side effects; also recorded: obvious toxicity	–	–	–	–	–	–	–	–	–	–	–	–
Nc1ccn([C@@H]2O[C@H](CO)[C@@H](O)[C@@H]2O)c(=O)n1 [cytarabine, reference compound]	–	–	–	–	weak killing effect	cannot significantly inhibit the growth	–	–	–	–	–	–	–	–	–	–
O=c1c2ccccc2[se]n1CCCCn1[se]c2ccccc2c1=O [BS]	–	–	–	no significant toxic and side effects	strong killing effects	significant killing effect	45.99	14.01	25.89	82.56±41.40	131.44±39.81	113.29±57.21	90	did not show any weight loss; also recorded: no significant change in body weight	obvious inhibitory effect	sensitive
